Results on two compounds are retold here after US20030232743A1, “Compositions and methods for darkening the skin” (priority 2002, published 2003).

This assay deals with Type IV pigmented epidermal equivalents (SkinEthic reconstructed human epidermis; normal human keratinocytes and melanocytes). Nature of the assay: Darkening in pigmented epidermal equivalents (DOPA and Fontana-Mason staining). On the set-up: key to Score DOPA staining (tyrosinase activity): 0: No change in DOPA staining and in melanin deposition; 1: Minimal increase in DOPA staining and/ or in pigment deposition; 2: Increased DOPA staining and/ or in pigment deposition; 3: Strong increase in DOPA staining and/ or in pigment deposition. The format is cell-based. The settings on record: for Score F & M staining (Pigment deposition) / Score DOPA staining (tyrosinase activity): peptides at 100 μM in PBS, treated three or five days, harvested fourth or sixth day; for Score F & M staining (Pigment deposition): sectioned equivalents F&M stained; for Score DOPA staining (tyrosinase activity): whole equivalents DOPA stained; for Overall change of pigmentation (darkening), in words: peptides at 100 μM, compared with UVB irradiation (0.10 J/cm^2). As to the method: Peptide 1 and Peptide 2 were tested for their ability to induce darkening in pigmented epidermal equivalents. The pigmented epidermal equivalents contain human normal melanocytes, together with normal, human-derived epidermal keratinocytes, which have been cultured to form a multi-layered, highly differentiated model of the human epidermis. Type IV pigmented epidermal equivalents (consists of normal human keratinocytes pooled from variety of phototype skins and normal human melanocytes derived from type IV phototype skin) were treated with test compounds for three or five days and samples were harvested on the fourth or sixth day of the study. The harvested equivalents were stained with DOPA (a substrate for tyrosinase) or with Fontana-Mason (F&M) (Sheenan D C, Hrapckak B B, eds: Theory and practice of Histo-Thchnology (St Louis: C V Mosby, 1980) pp 223-277). F&M staining identifies silver nitrate reducing activity, which, in skin, identifies melanin.
The Epidermal equivalents used were SkinEthic® reconstructed human epidermis from SkinEthic™ Laboratory (Nice, France). UV irradiation was performed with a UVB FS light source in an exposure chamber, with plate covers removed and Phosphate—buffered saline (PBS, from Gibco-BRL, Gaithersburg, Md.) present in the lower chamber. UVB intensity was measured with a UVX radiometer (UVP Inc., San Gabriel, Calif.). Equivalents were treated with 0.1-0.12 J/cm2. […] The peptides were assayed at 100 μM, and were dissolved in PBS.
On the fourth or sixth day of the study, the equivalents were fixed, sectioned and F&M stained, or they were DOPA stained as whole without sectioning, using standard techniques. Images of stained whole or sectioned equivalents were obtained and analyzed with Image Pro Plus 3.0 software (Media Cybernetics, Silver Spring, Md.). Parameters measured were surface area of stained material within melanocyte and keratinocyte and the total surface area of the cells in culture. In all experiments there was no difference between PBS-treated cells and untreated controls. At least three sections per equivalent, three equivalents per experiment were processed. DOPA-stained epidermal equivalents were evaluated for the change in tyrosinase activity. F&M-stained histological sections were evaluated for the change in pigment deposition. Due to the low content of melanin within the equivalent, it was not possible to quantify the level of pigment within melanocytes in F&M stained sections by image analysis. Therefore, we evaluate the pigment change using the scale defined in Table 1.

Regarding `COc1ccc(CN[C@@H](CCCN/C(N)=N/[N+](=O)[O-])C(=O)N[C@@H](CC(C)C)C(N)=O)cc1` [Peptide 1], the “Score F & M staining (Pigment deposition)” value is listed as 1-2; the “Score DOPA staining (tyrosinase activity)” value was 3; the “Overall change of pigmentation (darkening), in words” value is “darkening levels similar to those produced by UVB irradiation”.
Consider `CC(C)C[C@H](NC(=O)[C@H](CCCN/C(N)=N/[N+](=O)[O-])NCc1ccc(OC(F)(F)F)cc1)C(N)=O` [Peptide 2], for which the “Score F & M staining (Pigment deposition)” value is 1-2; the “Score DOPA staining (tyrosinase activity)” value is 1-2; the “Overall change of pigmentation (darkening), in words” value was “able to enhance pigment production”.
